Test results as given in patent publication US9540379B2 (priority 2011, dated 2017).

Biological target: PDE10A (Homo sapiens (Human), UniProt Q9Y233)
Settings: read-out: Inhibition of PDE10A, IC50
Description: Inhibition of Recombinant PDE10A (Expressed in Baculovirus/SF21 Cells)
PDE activity was determined in a one step procedure in microtiter plates. The reaction mixture of 100 μl contained 50 mM Tris-HCl/5 mM MgCl2 buffer (pH=7.4, Sigma, Deisenhofen, Germany; Merck, Darmstadt, Germany) 0.1 μM [3H]-cAMP (PerkinElmer, Shelton, USA) and the enzyme. Non-specific enzyme activity was determined without the enzyme.
The reaction was initiated by addition of the substrate solution and was carried out at 37° C. for 30 minutes. Enzymatic activity then was stopped by addition of 25 μl Ysi-SPA-beads (PerkinElmer, Shelton, USA). One h later the mixture was measured in a liquid scintillation counter for microtiter plates (Microbeta Trilux). The Biomek 2000 (Beckman) was used routinely for pipetting of the incubation mixture. […] For determination of IC50 values the Hill-plot, 2-parameter-model, was used.

Sequence of PDE10A (Q9Y233 other isoform, or with tags, fused parts or gaps): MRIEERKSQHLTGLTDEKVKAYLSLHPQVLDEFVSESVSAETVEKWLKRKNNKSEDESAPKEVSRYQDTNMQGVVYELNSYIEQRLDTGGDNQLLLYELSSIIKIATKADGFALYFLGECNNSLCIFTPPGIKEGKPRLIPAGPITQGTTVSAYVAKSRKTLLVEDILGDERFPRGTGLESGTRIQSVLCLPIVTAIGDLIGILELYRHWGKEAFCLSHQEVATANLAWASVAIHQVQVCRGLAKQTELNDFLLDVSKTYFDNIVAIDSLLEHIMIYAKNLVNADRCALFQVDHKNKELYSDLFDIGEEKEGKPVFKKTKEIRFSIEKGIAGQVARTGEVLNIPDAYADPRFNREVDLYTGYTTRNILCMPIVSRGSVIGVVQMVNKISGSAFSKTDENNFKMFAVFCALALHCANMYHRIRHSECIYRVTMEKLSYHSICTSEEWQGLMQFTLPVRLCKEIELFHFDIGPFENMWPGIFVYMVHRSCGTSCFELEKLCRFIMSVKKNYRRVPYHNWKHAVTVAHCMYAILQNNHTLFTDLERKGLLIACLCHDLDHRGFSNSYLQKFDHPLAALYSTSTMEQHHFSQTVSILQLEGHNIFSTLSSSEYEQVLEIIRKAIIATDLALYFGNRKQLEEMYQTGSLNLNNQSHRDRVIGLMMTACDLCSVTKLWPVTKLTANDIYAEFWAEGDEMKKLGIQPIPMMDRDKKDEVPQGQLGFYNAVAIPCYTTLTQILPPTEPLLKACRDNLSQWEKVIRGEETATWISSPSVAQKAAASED

Work on Cc1nc2ccc(Cl)cc2n2c(-c3ccccc3Cl)nnc12 [Example 1, 8-Chloro-1-(2-chloro-phenyl)-4-methyl-[1,2,4]triazolo[4,3-a]quinoxaline] yielded an IC50 of 0.045 µM.

Work on Cc1nc2ccc(Cl)cc2n2c(-c3ccccc3F)nnc12 [Example 2, 8-Chloro-1-(2-fluoro-phenyl)-4-methyl-[1,2,4]triazolo[4,3-a]quinoxaline] yielded an IC50 of 0.214 µM.

In the case of Cc1ncccc1-c1nnc2c(C)nc3ccc(Cl)cc3n12 [Example 5, 8-Chloro-4-methyl-1-(2-methyl-pyridin-3-yl)-[1,2,4]triazolo[4,3-a]quinoxaline], the IC50 is reported as 0.383 µM.

Compound Cc1nc2ccc(Cl)cc2n2c(-c3cc(Cl)ccc3Cl)nnc12 [Example 6, 8-Chloro-1-(2,5-dichloro-phenyl)-4-methyl-[1,2,4]triazolo[4,3-a]quinoxaline] has an IC50 of 0.131 µM.

COc1ccc(Cl)c(-c2nnc3c(C)nc4ccc(Cl)cc4n23)c1 [Example 7, 8-Chloro-1-(2-chloro-5-methoxy-phenyl)-4-methyl-[1,2,4]triazolo[4,3-a]quinoxaline] gave an IC50 of 0.104 µM.

In the case of Cc1cnccc1-c1nnc2c(C)nc3ccc(Cl)cc3n12 [Example 9, 8-Chloro-4-methyl-1-(3-methyl-pyridin-4-yl)-[1,2,4]triazolo[4,3-a]quinoxaline], the IC50 is reported as 0.736 µM.

Cc1nc2ccc(Cl)cc2n2c(-c3cc(C(F)(F)F)ccc3Cl)nnc12 [Example 10, 8-Chloro-1-(2-chloro-5-trifluoromethyl-phenyl)-4-methyl-[1,2,4]triazolo[4,3-a]quinoxaline] was tested, and the IC50 was > 1 µM.

CCCCOc1ccc(F)c(-c2nnc3c(C)nc4ccc(Cl)cc4n23)c1 [Example 11, 1-(5-Butoxy-2-fluoro-phenyl)-8-chloro-4-methyl-[1,2,4]triazolo[4,3-a]quinoxaline] was tested, and the IC50 was > 1 µM.

In the case of CCCCOc1ccc(Cl)c(-c2nnc3c(C)nc4ccc(Cl)cc4n23)c1 [Example 12, 1-(5-Butoxy-2-chloro-phenyl)-8-chloro-4-methyl-[1,2,4]triazolo[4,3-a]quinoxaline], the IC50 is reported as > 1 µM.

CCCCCCOc1ccc(C)c(-c2nnc3c(C)nc4ccc(Cl)cc4n23)c1 [Example 15, 8-Chloro-1-(5-hexyloxy-2-methyl-phenyl)-4-methyl-[1,2,4]triazolo[4,3-a]quinoxaline] was tested, and the IC50 was > 1 µM.

For Cc1nc2ccc(Cl)cc2n2c(-c3cc(OCCCC(F)(F)F)ccc3Cl)nnc12 [Example 16, 8-Chloro-1-[2-chloro-5-(4,4,4-trifluoro-butoxy)-phenyl]-4-methyl-[1,2,4]triazolo[4,3-a]quinoxaline], the IC50 was > 1 µM.

In the case of Cc1nc2ccc(Cl)cc2n2c(-c3cc(OCCCCF)ccc3F)nnc12 [Example 17, 8-Chloro-1-[2-fluoro-5-(4-fluoro-butoxy)-phenyl]-4-methyl-[1,2,4]triazolo[4,3-a]quinoxaline], the IC50 is reported as > 1 µM.

For Cc1nc2cc(Cl)ccc2n2c(-c3c(F)cccc3F)nnc12 [Example 18, 7-Chloro-1-(2,6-difluoro-phenyl)-4-methyl-[1,2,4]triazolo[4,3-a]quinoxaline], the IC50 was 0.103 µM.

With Cc1nc2cc(Cl)ccc2n2c(-c3cc(Cl)ccc3Cl)nnc12 [Example 19, 7-Chloro-1-(2,5-dichloro-phenyl)-4-methyl-[1,2,4]triazolo[4,3-a]quinoxaline] the IC50 was > 1 µM.

For Cc1nc2cc(Cl)ccc2n2c(-c3cc(C(F)(F)F)ccc3Cl)nnc12 [Example 21, 7-Chloro-1-(2-chloro-5-trifluoromethyl-phenyl)-4-methyl-[1,2,4]triazolo[4,3-a]quinoxaline], the IC50 was > 1 µM.

For CCCCOc1ccc(F)c(-c2nnc3c(C)nc4cc(Cl)ccc4n23)c1 [Example 22, 1-(5-Butoxy-2-fluoro-phenyl)-7-chloro-4-methyl-[1,2,4]triazolo[4,3-a]quinoxaline], the IC50 was > 1 µM.

With CCCCOc1ccc(Cl)c(-c2nnc3c(C)nc4cc(Cl)ccc4n23)c1 [Example 23, 1-(5-Butoxy-2-chloro-phenyl)-7-chloro-4-methyl-[1,2,4]triazolo[4,3-a]quinoxaline] the IC50 was > 1 µM.

With CCCCCCOc1ccc(F)c(-c2nnc3c(C)nc4cc(Cl)ccc4n23)c1 [Example 24, 7-Chloro-1-(2-fluoro-5-hexyloxy-phenyl)-4-methyl-[1,2,4]triazolo[4,3-a]quinoxaline] the IC50 was > 1 µM.

For CCCCOc1ccc(C)c(-c2nnc3c(C)nc4cc(Cl)ccc4n23)c1 [Example 25, 1-(5-Butoxy-2-methyl-phenyl)-7-chloro-4-methyl-[1,2,4]triazolo[4,3-a]quinoxaline], the IC50 was > 1 µM.

In the case of CCCCCCOc1ccc(C)c(-c2nnc3c(C)nc4cc(Cl)ccc4n23)c1 [Example 26, 7-Chloro-1-(5-hexyloxy-2-methyl-phenyl)-4-methyl-[1,2,4]triazolo[4,3-a]quinoxaline], the IC50 is reported as > 1 µM.

Cc1nc2ccccc2n2c(-c3ccccc3F)nnc12 [Example 30, 1-(2-Fluoro-phenyl)-4-methyl-[1,2,4]triazolo[4,3-a]quinoxaline] showed an IC50 of 0.346 µM.

Cc1nc2ccccc2n2c(-c3cc(Cl)ccc3Cl)nnc12 [Example 34, 1-(2,5-Dichloro-phenyl)-4-methyl-[1,2,4]triazolo[4,3-a]quinoxaline] showed an IC50 of 0.33 µM.

Compound Cc1nc2ccccc2n2c(-c3cccc(Cl)c3Cl)nnc12 [Example 35, 1-(2,3-Dichloro-phenyl)-4-methyl-[1,2,4]triazolo[4,3-a]quinoxaline] has an IC50 of 0.36 µM.

In the case of Cc1nc2ccccc2n2c(-c3cc(OCC4CCC4)ccc3Cl)nnc12 [Example 47, 1-(2-Chloro-5-cyclobutylmethoxy-phenyl)-4-methyl-[1,2,4]triazolo[4,3-a]quinoxaline], the IC50 is reported as > 1 µM.

With Cc1nc2ccccc2n2c(-c3cc(OCC4CC4)ccc3Cl)nnc12 [Example 48, 1-(2-Chloro-5-cyclopropylmethoxy-phenyl)-4-methyl-[1,2,4]triazolo[4,3-a]quinoxaline] the IC50 was > 1 µM.

In the case of Cc1nc2ccccc2n2c(-c3cc(OCCc4ccccc4)ccc3Cl)nnc12 [Example 49, 1-(2-Chloro-5-phenethyloxy-phenyl)-4-methyl-[1,2,4]triazolo[4,3-a]quinoxaline], the IC50 is reported as > 1 µM.

Cc1nc2ccccc2n2c(-c3cc(O)ccc3Cl)nnc12 [Example 50, 4-Chloro-3-(4-methyl-[1,2,4]triazolo[4,3-a]quinoxalin-1-yl)-phenol] showed an IC50 of 0.062 µM.

Compound Cc1nc2ccc(F)cc2n2c(-c3ccccc3F)nnc12 [Example 52, 8-Fluoro-1-(2-fluoro-phenyl)-4-methyl-[1,2,4]triazolo[4,3-a]quinoxaline] has an IC50 of 0.553 µM.

Cc1ncccc1-c1nnc2c(C)nc3ccc(F)cc3n12 [Example 53, 8-Fluoro-4-methyl-1-(2-methyl-pyridin-3-yl)-[1,2,4]triazolo[4,3-a]quinoxaline] gave an IC50 of 1 µM.

Compound COc1ccc(Cl)c(-c2nnc3c(C)nc4ccc(F)cc4n23)c1 [Example 56, 1-(2-Chloro-5-methoxy-phenyl)-8-fluoro-4-methyl-[1,2,4]triazolo[4,3-a]quinoxaline] has an IC50 of 0.279 µM.

With Cc1nc2ccc(F)cc2n2c(-c3cc(C(F)(F)F)ccc3Cl)nnc12 [Example 57, 1-(2-Chloro-5-trifluoromethyl-phenyl)-8-fluoro-4-methyl-[1,2,4]triazolo[4,3-a]quinoxaline] the IC50 was > 1 µM.

For CCCCOc1ccc(F)c(-c2nnc3c(C)nc4ccc(F)cc4n23)c1 [Example 58, 1-(5-Butoxy-2-fluoro-phenyl)-8-fluoro-4-methyl-[1,2,4]triazolo[4,3-a]quinoxaline], the IC50 was > 1 µM.

With CCCCOc1ccc(Cl)c(-c2nnc3c(C)nc4ccc(F)cc4n23)c1 [Example 59, 1-(5-Butoxy-2-chloro-phenyl)-8-fluoro-4-methyl-[1,2,4]triazolo[4,3-a]quinoxaline] the IC50 was > 1 µM.

CCCCCCOc1ccc(F)c(-c2nnc3c(C)nc4ccc(F)cc4n23)c1 [Example 60, 8-Fluoro-1-(2-fluoro-5-hexyloxy-phenyl)-4-methyl-[1,2,4]triazolo[4,3-a]quinoxaline] was tested, and the IC50 was > 1 µM.

COc1ccccc1-c1nnc2c(C)nc3ccc(C(F)(F)F)cc3n12 [Example 63, 1-(2-Methoxy-phenyl)-4-methyl-8-trifluoromethyl-[1,2,4]triazolo[4,3-a]quinoxaline] gave an IC50 of 0.265 µM.

For Cc1nc2ccc(C(F)(F)F)cc2n2c(-c3cccc(Cl)c3Cl)nnc12 [Example 64, 1-(2,3-Dichloro-phenyl)-4-methyl-8-trifluoromethyl-[1,2,4]triazolo[4,3-a]quinoxaline], the IC50 was 0.337 µM.

In the case of Cc1nc2ccc(C(F)(F)F)cc2n2c(-c3cc(C(F)(F)F)ccc3Cl)nnc12 [Example 65, 1-(2-Chloro-5-trifluoromethyl-phenyl)-4-methyl-8-trifluoromethyl-[1,2,4]triazolo[4,3-a]quinoxaline], the IC50 is reported as > 1 µM.

Compound Cc1nc2ccc(C(F)(F)F)cc2n2c(-c3ccccc3F)nnc12 [Example 66, 1-(2-Fluorophenyl)-4-methyl-8-trifluoromethyl-[1,2,4]triazolo[4,3-a]quinoxaline] has an IC50 of 0.471 µM.

With CCCCOc1ccc(F)c(-c2nnc3c(C)nc4ccc(C(F)(F)F)cc4n23)c1 [Example 67, 1-(5-Butoxy-2-fluoro-phenyl)-4-methyl-8-trifluoromethyl-[1,2,4]triazolo[4,3-a]quinoxaline] the IC50 was > 1 µM.

For CCCCCCOc1ccc(F)c(-c2nnc3c(C)nc4ccc(C(F)(F)F)cc4n23)c1 [Example 68, 1-(2-Fluoro-5-hexyloxy-phenyl)-4-methyl-8-trifluoromethyl-[1,2,4]triazolo[4,3-a]quinoxaline], the IC50 was > 1 µM.

COc1ccc2c(c1)nc(C)c1nnc(-c3ccccc3F)n12 [Example 73, 1-(2-Fluoro-phenyl)-7-methoxy-4-methyl-[1,2,4]triazolo[4,3-a]quinoxaline] was tested, and the IC50 was 0.223 µM.

COc1ccc2c(c1)nc(C)c1nnc(-c3ccccc3Cl)n12 [Example 74, 1-(2-Chloro-phenyl)-7-methoxy-4-methyl-[1,2,4]triazolo[4,3-a]quinoxaline] gave an IC50 of 0.068 µM.

With Cc1nc2cc(O)ccc2n2c(-c3ccccc3Cl)nnc12 [Example 76, 1-(2-Chloro-phenyl)-4-methyl-[1,2,4]triazolo[4,3-a]quinoxalin-7-ol] the IC50 was 0.274 µM.

Work on COc1ccc(CCOc2ccc3c(c2)nc(C)c2nnc(-c4ccccc4Cl)n23)cc1OC [Example 78, 1-(2-Chloro-phenyl)-7-[2-(3,4-dimethoxy-phenyl)-ethoxy]-4-methyl-[1,2,4]triazolo[4,3-a]quinoxaline] yielded an IC50 of 0.048 µM.
